Legend:
[1] = tested on: panel of 60 human cancer cell lines; assay: Five-dose growth inhibition, panel; format: cell-based
CCRF-CEM = assay: NCI 60 cell line five dose, Leukemia
MOLT-4 = assay: NCI 60 cell line five dose, Leukemia
M14 = assay: NCI 60 cell line five dose, Melanoma
MDA-MB-435 = assay: NCI 60 cell line five dose, Melanoma
SK-MEL-28 = assay: NCI 60 cell line five dose, Melanoma; settings: SK-MEL-28
UACC-62 = assay: NCI 60 cell line five dose, Melanoma
SF-539 = assay: NCI 60 cell line five dose, CNS Cancer
HCT-116 = assay: NCI 60 cell line five dose, Colon Cancer
HCT-15 = assay: NCI 60 cell line five dose, Colon Cancer
HT29 = assay: NCI 60 cell line five dose, Colon Cancer
KM12 = assay: NCI 60 cell line five dose, Colon Cancer
A498 = assay: NCI 60 cell line five dose, Renal Cancer
ACHN = assay: NCI 60 cell line five dose, Renal Cancer
TK-10 = assay: NCI 60 cell line five dose, Renal Cancer
MDA-MB-231/ATCC = assay: NCI 60 cell line five dose, Breast Cancer
HS 578T = assay: NCI 60 cell line five dose, Breast Cancer; settings: HS 578T
BT-549 = assay: NCI 60 cell line five dose, Breast Cancer
T-47D = assay: NCI 60 cell line five dose, Breast Cancer
MDA-MB-468 = assay: NCI 60 cell line five dose, Breast Cancer
OVCAR-8 = assay: NCI 60 cell line five dose, Ovarian Cancer
A549/ATCC = assay: NCI 60 cell line five dose, Non-Small Cell Lung Cancer
NCI-H226 = assay: as above

C=C1C(=O)O[C@H]2[C@H]1CC/C(COC(=O)NCCCCCNC(=O)OC/C1=C/CC[C@@]3(C)O[C@H]3[C@H]3OC(=O)C(=C)[C@@H]3CC1)=C\CC[C@@]1(C)O[C@@H]21 [JVM 2-76, bis(((1aR,7aS,10aS,10bS,E)-1a-Methyl-8-methylene-9-oxo-1a,2,3,6,7,7a,8,9,10a,10b-decahydrooxireno[2′,3′:9,10]cyclodeca[1,2-b]furan-5-yl)methyl)pentane-1,5-diyldicarbamate]
growth inhibition (GI50) ([1]; CCRF-CEM, HL-60 (TB), K-562, RPMI-8226, SR, NCI-H522, COLO 205, HCT-116, HT29, SW-620, LOX IMVI, OVCAR-3, RXF 393, MCF7): nano-molar range | GI50 values ([1]; remaining human cancer cell lines): low micromolar range | GI50 (CCRF-CEM): 0.28 µM | TGI (CCRF-CEM): 0.96 µM | CC50 (CCRF-CEM; read-out: LC50): > 100 µM | GI50 (MOLT-4): 1.48 µM | TGI (MOLT-4): 9.29 µM | CC50 (MOLT-4; read-out: LC50): > 100 µM | GI50 (M14): 1.71 µM | TGI (M14): 3.74 µM | CC50 (M14; read-out: LC50): 8.2 µM | GI50 (MDA-MB-435): 1.51 µM | TGI (MDA-MB-435): 3.32 µM | CC50 (MDA-MB-435; read-out: LC50): 7.3 µM | GI50 (SK-MEL-28): 1.58 µM | TGI (SK-MEL-28): 4.13 µM | CC50 (SK-MEL-28; read-out: LC50): 12.6 µM | GI50 (UACC-62): 1.41 µM | TGI (UACC-62): 3.16 µM | CC50 (UACC-62; read-out: LC50): 7.04 µM | GI50 (SF-539): 1.92 µM | TGI (SF-539): 4.56 µM | CC50 (SF-539; read-out: LC50): 12.7 µM | GI50 (HCT-116): 0.54 µM | TGI (HCT-116): 1.86 µM | CC50 (HCT-116; read-out: LC50): 4.56 µM | GI50 (HCT-15): 6.18 µM | TGI (HCT-15): 20.7 µM | CC50 (HCT-15; read-out: LC50): 49.8 µM | GI50 (HT29): 0.51 µM | TGI (HT29): 1.78 µM | CC50 (HT29; read-out: LC50): 4.85 µM | GI50 (KM12): 6.53 µM | TGI (KM12): 21.0 µM | CC50 (KM12; read-out: LC50): 54.2 µM | GI50 (A498): 6.24 µM | TGI (A498): 19.4 µM | CC50 (A498; read-out: LC50): 47.5 µM | GI50 (ACHN): 3.05 µM | TGI (ACHN): 9.84 µM | CC50 (ACHN; read-out: LC50): 35.4 µM | GI50 (TK-10): 1.82 µM | TGI (TK-10): 4.40 µM | CC50 (TK-10; read-out: LC50): 11.8 µM | GI50 (MDA-MB-231/ATCC): 1.47 µM | TGI (MDA-MB-231/ATCC): 3.07 µM | CC50 (MDA-MB-231/ATCC; read-out: LC50): 6.4 µM | GI50 (HS 578T): 2.91 µM | TGI (HS 578T): 13.0 µM | CC50 (HS 578T; read-out: LC50): > 100 µM | GI50 (BT-549): 1 µM | TGI (BT-549): 2.23 µM | CC50 (BT-549; read-out: LC50): 4.96 µM | GI50 (T-47D): 1.6 µM | TGI (T-47D): 5.73 µM | CC50 (T-47D; read-out: LC50): > 100 µM | GI50 (MDA-MB-468): 1.06 µM | TGI (MDA-MB-468): 3.96 µM | CC50 (MDA-MB-468; read-out: LC50): 24.7 µM | GI50 (OVCAR-8): 3.27 µM | TGI (OVCAR-8): 13.7 µM | CC50 (OVCAR-8; read-out: LC50): 61 µM | GI50 (A549/ATCC): 14.9 µM | TGI (A549/ATCC): 32.7 µM | CC50 (A549/ATCC; read-out: LC50): 71.7 µM | GI50 (NCI-H226): 2.56 µM | TGI (NCI-H226): 8.18 µM | CC50 (NCI-H226; read-out: LC50): 30.9 µM

C=C1C(=O)O[C@H]2[C@H]1CC/C(COC(=O)CCC(=O)NCCCCCCCCNC(=O)CCC(=O)OC/C1=C/CC[C@@]3(C)O[C@H]3[C@H]3OC(=O)C(=C)[C@@H]3CC1)=C\CC[C@@]1(C)O[C@@H]21 [JVM 2-87, bis(((1aR,7aS,10aS,10bS,E)-1a-Methyl-8-methylene-9-oxo-1a,2,3,6,7,7a,8,9,10a,1b-decahydrooxireno[2′,3′:9,10]cyclodeca[1,2-b]furan-5-yl)methyl)4,4′-(octane-1,8-diylbis(azanediyl))bis(4-oxobutanoate)]
growth inhibition (GI50) ([1]; CCRF-CEM, HL-60 (TB), K-562, SR): nanomolar range | growth inhibition (GI50) ([1]; NCI-H522, RXF 393, MCF7): nanomolar range | growth inhibition (GI50) ([1]; other human tumor cell lines in the panel): low micromolar range | GI50 (CCRF-CEM): 0.32 µM | TGI (CCRF-CEM): 1.48 µM | GI50 (MOLT-4): 2.11 µM | TGI (MOLT-4): 6.41 µM | GI50 (M14): 1.79 µM | TGI (M14): 3.79 µM | GI50 (MDA-MB-435): 1.8 µM | TGI (MDA-MB-435): 3.69 µM | GI50 (SK-MEL-28): 1.65 µM | TGI (SK-MEL-28): 3.23 µM | GI50 (UACC-62): 1.97 µM | TGI (UACC-62): 4.20 µM | GI50 (SF-539): 2.43 µM | TGI (SF-539): 5.76 µM | GI50 (HCT-116): 1.54 µM | TGI (HCT-116): 2.88 µM | GI50 (HCT-15): 3.6 µM | TGI (HCT-15): 15.6 µM | GI50 (HT29): 1.64 µM | TGI (HT29): 3.12 µM | GI50 (KM12): 9.46 µM | TGI (KM12): 22.9 µM | GI50 (A498): 6.72 µM | TGI (A498): 20.8 µM | GI50 (ACHN): 3.13 µM | TGI (ACHN): 10.9 µM | GI50 (TK-10): 20.8 µM | TGI (TK-10): 3.94 µM | GI50 (MDA-MB-231/ATCC): 1.97 µM | TGI (MDA-MB-231/ATCC): 4.41 µM | GI50 (HS 578T): 3.88 µM | TGI (HS 578T): 29.5 µM | GI50 (BT-549): 1.23 µM | TGI (BT-549): 2.51 µM | GI50 (T-47D): 1.51 µM | TGI (T-47D): 3.86 µM | GI50 (MDA-MB-468): 1.33 µM | TGI (MDA-MB-468): 3.84 µM | GI50 (OVCAR-8): 2.9 µM | TGI (OVCAR-8): 13.3 µM | GI50 (A549/ATCC): 18.5 µM | TGI (A549/ATCC): 40.7 µM | GI50 (NCI-H226): 2.06 µM | TGI (NCI-H226): 4.95 µM

C=C1C(=O)O[C@H]2[C@H]1CC/C(COC(=O)CCC(=O)NCCCCCCCCCNC(=O)CCC(=O)OC/C1=C/CC[C@@]3(C)O[C@H]3[C@H]3OC(=O)C(=C)[C@@H]3CC1)=C\CC[C@@]1(C)O[C@@H]21 [JVM 2-92, bis(((1aR,7aS,10aS,10bS,E)-1a-Methyl-8-methylene-9-oxo-1a,2,3,6,7,7a,8,9,10a,10b-decahydrooxireno[2′,3′:9,10]cyclodeca[1,2-b]furan-5-yl)methyl)4,4′-(nonane-1,9-diylbis(azanediyl))bis (4-oxobutanoate)]
growth inhibition ([1]; NCI-H522, SW-620, LOX IMVI, MCF7, BT-549, MDA-MB-468): nano-molar range | growth inhibition ([1]; all hematological leukemia cell lines): nanomolar range | GI50 (CCRF-CEM): 0.28 µM | TGI (CCRF-CEM): 1.00 µM | GI50 (MOLT-4): 0.64 µM | TGI (MOLT-4): 4.20 µM | GI50 (M14): 1.65 µM | TGI (M14): 3.64 µM | GI50 (MDA-MB-435): 1.63 µM | TGI (MDA-MB-435): 3.44 µM | GI50 (SK-MEL-28): 1.47 µM | TGI (SK-MEL-28): 3.03 µM | GI50 (UACC-62): 1.69 µM | TGI (UACC-62): 3.78 µM | GI50 (SF-539): 1.85 µM | TGI (SF-539): 4.29 µM | GI50 (HCT-116): 0.86 µM | TGI (HCT-116): 2.18 µM | GI50 (HCT-15): 2.63 µM | TGI (HCT-15): 11.9 µM | GI50 (HT29): 1.33 µM | TGI (HT29): 2.75 µM | GI50 (KM12): 4.6 µM | TGI (KM12): 17.1 µM | GI50 (A498): 2.72 µM | TGI (A498): 8.30 µM | GI50 (ACHN): 2.1 µM | TGI (ACHN): 5.16 µM | GI50 (TK-10): 1.78 µM | TGI (TK-10): 3.28 µM | GI50 (MDA-MB-231/ATCC): 1.58 µM | TGI (MDA-MB-231/ATCC): 4.05 µM | GI50 (HS 578T): 2.99 µM | TGI (HS 578T): 24.9 µM | GI50 (BT-549): 0.66 µM | TGI (BT-549): 2.03 µM | GI50 (T-47D): 1.49 µM | TGI (T-47D): 4.48 µM | GI50 (MDA-MB-468): 0.98 µM | TGI (MDA-MB-468): 2.64 µM | GI50 (OVCAR-8): 3.24 µM | TGI (OVCAR-8): 16.5 µM | GI50 (A549/ATCC): 13.8 µM | TGI (A549/ATCC): 33.7 µM | GI50 (NCI-H226): 1.9 µM | TGI (NCI-H226): 4.05 µM

Source: patent US10118935B2, “Melampomagnolide B dimers” (priority 2014, dated 2018)
